Earlier results as cited in patent US5607937A, “Piperazides of substituted phenylalanine derivatives as thrombin inhibitors” (priority 1993, dated 1997).

Key:
trypsin = target: T1, trypsin (Bos taurus, UniProt P00760); conditions: literature; cited from earlier work
T1 sequence (P00760 24-246): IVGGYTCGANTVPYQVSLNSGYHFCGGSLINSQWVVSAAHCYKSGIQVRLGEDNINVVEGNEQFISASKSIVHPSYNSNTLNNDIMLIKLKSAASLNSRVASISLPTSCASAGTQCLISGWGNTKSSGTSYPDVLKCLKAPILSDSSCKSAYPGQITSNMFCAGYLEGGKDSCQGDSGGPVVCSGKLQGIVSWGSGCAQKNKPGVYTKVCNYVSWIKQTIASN

thrombin = thrombin (Homo sapiens, UniProt P00734); conditions: literature; cited from earlier work

Compound: CC(C)(C)OC(=O)NC(Cc1ccccc1)C(=O)N1CCCC1C(=O)NC(CCCNC(=N)N)B1OC2CC3CC(C3(C)C)C2(C)O1 [Boc-D-Phe-Pro-Boro-Arg-C10 H16]
- trypsin-inhibiting activity in words (trypsin): inhibited in a time-dependent reaction
- thrombin inhibition in words (thrombin): inhibited in a time-dependent reaction
